The assay deals with Peptidyl-prolyl cis-trans isomerase FKBP1A (Homo sapiens, UniProt P62942). Briefly: Binding affinity to FK506 binding protein 12 was determined.

SMILES strings stand for the structures.

The term Kd denotes a measure of binding affinity in units of concentration. High values mean lower affinity, low ones higher affinity.

Peptidyl-prolyl cis-trans isomerase FKBP1A, sequence (P62942 whole entry): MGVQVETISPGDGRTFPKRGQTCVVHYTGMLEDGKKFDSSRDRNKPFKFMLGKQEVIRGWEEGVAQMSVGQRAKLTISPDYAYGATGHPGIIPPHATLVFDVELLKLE

`CCCC1C(=O)CC[C@@H](C)[C@@H](CCc2cccnc2)OC(=O)[C@@H]2CCCN(C2)C(=O)C(O)CC[S+]([O-])CC[C@@H](OC)C[C@@H](C)CC(=O)N1C` (stereo not given in full) gave a Kd of over 1000 nM. `C=CC[C@@H]1/C=C(\C)C[C@H](C)C[C@H](OC)[C@@H](O)[C@@H](OC)C[C@@H](C)c2ncoc2C(=O)N2CCCC[C@H]2C(=O)O[C@H](/C(C)=C/[C@@H]2CC[C@@H](O)[C@H](OC)C2)[C@H](C)C(O)CC1=O` (stereo not given in full) registered a Kd of 344 nM. With `C=CC[C@@H]1/C=C(\C)C[C@H](C)C[C@H](OC)[C@@H](O)[C@@H](OC)C[C@@H](C)CC(=O)C(=O)N2CCCC[C@H]2C(=O)O[C@H](/C(C)=C/[C@@H]2CC[C@@H](O)[C@H](OC)C2)[C@H](C)[C@@H](O)CC1=O` the figure was 320 nM; with `CCCC1C(=O)CC[C@@H](C)[C@@H](CCc2cccnc2)OC(=O)[C@@H]2CCCN(C2)C(=O)C(=O)CSCC[C@@H](OC)C[C@@H](C)CC(=O)N1C` (stereo not given in full), 644 nM; with `CCC(C)C1C(=O)CC[C@@H](C)[C@@H](CCc2cccnc2)OC(=O)[C@@H]2CCCN(C2)C(=O)C(=O)CCSCC[C@@H](OC)C[C@@H](C)CC(=O)N1C` (stereo not given in full), 90 nM.

The record behind these values is ChEMBL document CHEMBL1128043, “Synthesis of FK506-Cyclosporin hybrid macrocycles” (Bioorg Med Chem Lett, 1995).
